From patent publication US12180207B2 (ARRAY BIOPHARMA INC., priority 2018, dated 2024)

How the values were obtained:
[1] = molecular target: recombinant human FGFR3 (amino acids R397-T806) (Homo sapiens (Human), UniProt P22607); assay: FGFR3 enzyme activity assay (LanthaScreen TR-FRET); type: biochemical; conditions: 25 μM ATP, 10 min incubation at 22° C., average of multiple determinations if made, read-out: FGFR3 Enz FRET IC50
Method: FGFR3 kinase activity was measured by the Invitrogen LanthaScreen™ Assay technology which directly measures the amount of substrate phosphorylation by TR-FRET using a fluorescently-labeled peptide and Europium-labeled antibody. Briefly, […] N-terminal GST-HIS6 fusion protein with a 3C cleavage site recombinant human FGFR3 (amino acids R397-T806) (ProQinase Cat. No. 1068-0000-1) was incubated with 100 nM Alexa Fluor® 647-Poly-GT Peptide Substrate (Life Technologies Cat. No. PV5836) and 25 μM ATP along with test compound in a buffer consisting of 250 mM HEPES, 25 mM MgCl2, 0.05% TritonX-100, pH 7.5, and 2% DMSO. […] After a 10 minute incubation at 22° C., an equal volume of 2 nM LanthaScreen® Eu-PY20 Antibody (Life Technologies Cat. No. PV5691) and 10 mM EDTA were added to quench the kinase reaction and start the detection reaction. After an additional 60 minute incubation at 22° C., the reaction was measured using a PerkinElmer EnVision multimode plate reader via TR-FRET dual wavelength detection, and the percent of control (POC) calculated using a ratiometric emission factor. 100 POC was determined using no test compounds and 0 POC was determined using no enzyme. The POC values were fit to a 4-parameter logistic curve as a function of the concentration of the compound, and the IC50 value is the point where the curve crosses 50 POC.

[2] = molecular target: FGFR3 (SEQ ID NO: 5, amino acids 449-759) (Homo sapiens (Human), UniProt P22607); assay: LC/MS FGFR3 kobs assay (covalent protein modification); type: binding; conditions: 500 nM FGFR3, 3 μM compound
Method: The LC/MS FGFR1 and FGFR3 kobs assays were conducted as follows. […] At each time point, the reaction was quenched with 20 μL of 0.4% formic acid. The extent of protein modification by each compound was determined by LC/MS on an Agilent Technologies 6520 Q-TOF LC/MS. Protein signals were then automatically deconvoluted using Agilent Masshunter software. Deconvoluted mass signals were exported to Tibco Spotfire data analysis program for further processing and normalization.
Data analysis included five steps. First, the signals for the “DMSO Controls” were analyzed to determine the percent of signal associated with unmodified FGFR1 or FGFR3 at each time point. Next, the percent of the signal associated with the covalent modification was determined. Third, the average nonmodified “DMSO Control” signal was used to normalize the modified protein signals at each time point. The percent of unmodified protein was fit to an exponential decay model where A0 is the Percent Unmodified at the start of the reaction, and kobs is the observed rate constant over the time period.
Table EC contains kobs values for compounds tested in these assays, presented as the average of multiple determinations if multiple determinations were made. ND=not determined.

[3] = molecular target: phosphorylated FGFR3 (SEQ ID NO: 5, amino acids 449 to 759) (Homo sapiens (Human), UniProt P22607); assay: FGFR enzyme binding assay (HTRF tracer displacement), FGFR3; conditions: 5 nM phosphorylated FGFR3, average of multiple determinations if made
Method: (§1) The potency of compounds inhibiting human isoforms of FGFR kinase was determined using Life Technologies' Homogeneous Time Resolved Fluorescence (HTRF)-based binding assay technology. […] After a 60 minute incubation at 22° C., the extent of tracer displacement was determined using a PerkinElmer EnVision multimode plate reader via HTRF dual wavelength detection, and the percent of control (POC) was calculated using a ratiometric emission factor. One hundred POC was determined using no test compound, and 0 POC was determined in the presence of 1 μM of an appropriate control inhibitor.

[4] = molecular target: dephosphorylated FGFR1 (SEQ ID NO: 1, amino acids 458 to 765) (Homo sapiens (Human), UniProt P11362); assay: FGFR enzyme binding assay (HTRF tracer displacement), FGFR1; conditions: 5 nM dephosphorylated FGFR1, average of multiple determinations if made
Method: as §1

[5] = molecular target: recombinant human FGFR1 catalytic domain (amino acids 308-731) (Homo sapiens (Human), UniProt P11362); assay: FGFR1 enzyme activity assay (LanthaScreen TR-FRET); type: biochemical; conditions: 20 min incubation at 22° C., average of multiple determinations if made, read-out: FGFR1 Enz FRET IC50
Method: FGFR1 kinase activity was measured by the Invitrogen LanthaScreen™ Assay technology which directly measures the amount of substrate phosphorylation by Time-resolved fluorescence energy transfer (TR-FRET) using a fluorescently-labeled peptide and Europium-labeled antibody. Briefly, […] His-tagged recombinant human FGFR1 catalytic domain (amino acids 308-731) (Life Technologies Cat. No. PR4660A) was incubated with 100 nM Alexa Fluor® 647-Poly-GT Peptide Substrate (Life Technologies Cat. No. PV5836) and […] ATP along with test compound in a buffer consisting of 250 mM HEPES, 25 mM MgCl2, 0.05% TritonX-100, pH 7.5, and 2% DMSO. […] After a 20 minutes incubation at 22° C., an equal volume of 2 nM LanthaScreen® Eu-PY20 Antibody (Life Technologies Cat. No. PV5691) and 10 mM EDTA was added to quench the kinase reaction and start the detection reaction. After an additional 60 minute incubation at 22° C., the reaction was measured using a PerkinElmer EnVision multimode plate reader via TR-FRET dual wavelength detection, and the percent of control (POC) calculated using a ratiometric emission factor. 100 POC was determined using no test compounds and 0 POC was determined using no enzyme. The POC values were fit to a 4-parameter logistic curve as a function of the concentration of the compound, and the IC50 value is the point where the curve crosses 50 POC.

[6] = molecular target: recombinant human FGFR2 cytoplasmic domain (amino acids 403-822) (Homo sapiens (Human), UniProt P21802); assay: FGFR2 enzyme activity assay (LanthaScreen TR-FRET); type: biochemical; conditions: 15 μM ATP, 20 min incubation at 22° C., average of multiple determinations if made, read-out: FGFR2 Enz FRET IC50
Method: FGFR2 kinase activity was measured by the Invitrogen LanthaScreen™ Assay technology which directly measures the amount of substrate phosphorylation by TR-FRET using a fluorescently-labeled peptide and Europium-labeled antibody. Briefly, […] His-tagged recombinant human FGFR2 cytoplasmic domain (amino acids 403-822) (Life Technologies Cat. No. PR5332A) was incubated with 100 nM Alexa Fluor® 647-Poly-GT Peptide Substrate (Life Technologies Cat. No. PV5836) and 15 μM ATP along with test compound in a buffer consisting of 250 mM HEPES, 25 mM MgCl2, 0.05% TritonX-100, pH 7.5, and 2% DMSO. […] After a 20 minute incubation at 22° C., an equal volume of 2 nM LanthaScreen® Eu-PY20 Antibody (Life Technologies Cat. No. PV5691) and 10 mM EDTA were added to quench the kinase reaction and start the detection reaction. After an additional 60 minute incubation at 22° C., the reaction was measured using a PerkinElmer EnVision multimode plate reader via TR-FRET dual wavelength detection, and the percent of control (POC) calculated using a ratiometric emission factor. 100 POC was determined using no test compounds and 0 POC was determined using no enzyme. The POC values were fit to a 4-parameter logistic curve as a function of the concentration of the compound, and the IC50 value is the point where the curve crosses 50 POC.

Chain of recombinant human FGFR1 catalytic domain (amino acids 308-731) (P11362 other isoform, or with tags, fused parts or gaps): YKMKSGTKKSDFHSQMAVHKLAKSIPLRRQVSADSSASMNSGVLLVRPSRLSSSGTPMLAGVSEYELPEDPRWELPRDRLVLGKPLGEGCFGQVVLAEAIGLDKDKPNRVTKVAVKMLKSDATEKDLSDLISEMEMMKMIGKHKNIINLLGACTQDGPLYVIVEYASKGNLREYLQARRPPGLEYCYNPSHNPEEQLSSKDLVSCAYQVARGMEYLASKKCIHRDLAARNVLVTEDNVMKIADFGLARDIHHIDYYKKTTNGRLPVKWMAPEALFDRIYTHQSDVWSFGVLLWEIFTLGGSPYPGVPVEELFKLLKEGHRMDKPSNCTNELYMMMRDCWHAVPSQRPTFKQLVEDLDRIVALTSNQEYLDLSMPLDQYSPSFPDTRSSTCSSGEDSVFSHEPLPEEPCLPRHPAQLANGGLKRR
Chain of FGFR3 (SEQ ID NO: 5, amino acids 449-759) (P22607 449-759): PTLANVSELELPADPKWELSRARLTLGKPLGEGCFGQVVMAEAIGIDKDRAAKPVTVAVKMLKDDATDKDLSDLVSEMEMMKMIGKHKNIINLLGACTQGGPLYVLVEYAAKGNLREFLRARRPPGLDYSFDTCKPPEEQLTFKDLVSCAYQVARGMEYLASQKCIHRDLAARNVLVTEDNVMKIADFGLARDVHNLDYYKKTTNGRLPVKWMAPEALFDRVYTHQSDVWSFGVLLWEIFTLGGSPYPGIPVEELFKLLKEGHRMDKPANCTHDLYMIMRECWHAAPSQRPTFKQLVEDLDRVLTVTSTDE
Chain of phosphorylated FGFR3 (SEQ ID NO: 5, amino acids 449 to 759) (P22607 449-759): as above
Chain of dephosphorylated FGFR1 (SEQ ID NO: 1, amino acids 458 to 765) (P11362 458-765): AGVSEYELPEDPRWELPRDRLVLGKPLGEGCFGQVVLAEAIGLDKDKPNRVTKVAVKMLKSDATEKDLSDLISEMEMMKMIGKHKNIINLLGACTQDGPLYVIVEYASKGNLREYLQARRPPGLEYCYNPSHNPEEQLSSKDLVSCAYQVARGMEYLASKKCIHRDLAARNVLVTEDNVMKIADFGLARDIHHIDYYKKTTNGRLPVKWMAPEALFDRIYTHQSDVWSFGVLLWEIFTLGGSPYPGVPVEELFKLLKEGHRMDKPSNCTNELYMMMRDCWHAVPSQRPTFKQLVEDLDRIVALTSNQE
Chain of recombinant human FGFR2 cytoplasmic domain (amino acids 403-822) (P21802 402-821): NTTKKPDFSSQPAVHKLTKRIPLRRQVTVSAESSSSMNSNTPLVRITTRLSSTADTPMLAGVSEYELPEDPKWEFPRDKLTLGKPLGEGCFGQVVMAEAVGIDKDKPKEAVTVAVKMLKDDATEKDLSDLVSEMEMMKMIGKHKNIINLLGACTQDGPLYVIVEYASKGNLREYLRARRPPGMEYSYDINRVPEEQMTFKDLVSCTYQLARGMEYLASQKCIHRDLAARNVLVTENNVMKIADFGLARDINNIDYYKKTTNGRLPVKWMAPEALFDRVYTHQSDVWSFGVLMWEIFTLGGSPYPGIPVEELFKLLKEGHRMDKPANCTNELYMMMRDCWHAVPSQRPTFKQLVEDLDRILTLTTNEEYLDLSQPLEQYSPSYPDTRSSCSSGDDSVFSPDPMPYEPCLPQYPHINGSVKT
Chain of recombinant human FGFR3 (amino acids R397-T806) (P22607 397-806): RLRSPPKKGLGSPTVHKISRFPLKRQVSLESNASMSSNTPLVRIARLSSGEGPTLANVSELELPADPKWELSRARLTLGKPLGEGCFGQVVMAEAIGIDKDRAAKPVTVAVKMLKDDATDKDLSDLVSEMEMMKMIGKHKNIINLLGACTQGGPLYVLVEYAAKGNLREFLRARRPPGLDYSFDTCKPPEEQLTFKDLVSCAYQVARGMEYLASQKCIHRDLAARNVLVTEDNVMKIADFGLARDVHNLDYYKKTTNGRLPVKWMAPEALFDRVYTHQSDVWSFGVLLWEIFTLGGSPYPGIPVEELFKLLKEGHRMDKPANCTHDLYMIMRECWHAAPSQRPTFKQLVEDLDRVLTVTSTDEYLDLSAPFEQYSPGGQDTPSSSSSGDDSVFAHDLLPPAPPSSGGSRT

Row | Compound | IC50 [1] [nM] | FGFR3 Enz kobs [2] [min⁻¹] | IC50 [3] [nM] | IC50 [4] [nM] | IC50 [5] [nM] | IC50 [6] [nM]
1 | C=CC(=O)N[C@H]1C[C@H](C(=O)N2CC[C@@H](n3cc(-c4cc(OC)c5c(C#N)cnn5c4)cn3)C2)C1 [Example 60, N-((1R,3r)-3-((R)-3-(4-(3-cyano-4-methoxypyrazolo[1,5-a]pyridin-6-yl)-1H-pyrazol-1-yl)pyrrolidine-1-carbonyl)cyclobutyl)acryl-amide] | 7 | 0.00083 | 32 | 203 | 31 | 7
2 | C=CC(=O)N[C@H]1C[C@H](C(=O)N2CC(n3cc(-c4cc(OC)c5c(C#N)cnn5c4)cn3)C2)C1 [Example 79, N-((1r,3r)-3-(3-(4-(3-cyano-4-methoxypyrazolo[1,5-a]pyridin-6-yl)-1H-pyrazol-1-yl)azetidine-1-carbonyl)cyclobutyl)acryl-amide] | 10 | 0.00116 | 79 | 447 | 36 | 11
3 | C=CC(=O)NC1C2CC1C2C(=O)N1CCC(n2cc(-c3cc(OC)c4c(C#N)cnn4c3)cn2)CC1 (stereo not shown) [Example 46, N-(4-(4-(4-(3-cyano-4-methoxypyrazolo[1,5-a]pyridin-6-yl)-1H-pyrazol-1-yl)piperidine-1-carbonyl)bicyclo[1.1.1]pentan-2-yl)acrylamide] | 3 | 0.00153 | 4 | 23 | 12 | 2
4 | C=CC(=O)N[C@H]1CC[C@@H](C(=O)N2CCC(n3cc(-c4cc(OC)c5c(C#N)cnn5c4)cn3)CC2)CC1 [Example 20, N-((1s,4s)-4-(4-(4-(3-cyano-4-methoxypyrazolo[1,5-a]pyridin-6-yl)-1H-pyrazol-1-yl)piperidine-1-carbonyl)cyclohexyl)acryl-amide] | 3 | 0.00051 | 18 | 93 | 14 | 3
5 | C=CC(=O)N[C@H]1C[C@H](C(=O)N2CCC(n3cc(-c4cc(OC)c5c(C#N)cnn5c4)cn3)CC2)C1 [Example 45, N-((1r,3r)-3-(4-(4-(3-cyano-4-methoxypyrazolo[1,5-a]pyridin-6-yl)-1H-pyrazol-1-yl)piperidine-1-carbonyl)cyclobutyl)acryl-amide] | 8 | 0.00116 | 44 | – | – | 9
6 | C=CC(=O)N1CCC(C(=O)N2CC[C@@H](n3cc(-c4cc(OC)c5c(C#N)cnn5c4)cn3)C2)CC1 [Example 53, (R)-6-(1-(1-(1-acryloylpiperidine-4-carbonyl)pyrrolidin-3-yl)-1H-pyrazol-4-yl)-4-methoxypyrazolo[1,5-a]pyridine-3-carbonitrile] | 3 | 0.00112 | 31 | – | – | 7

Stronger by IC50 [1], values ahead:

Row | IC50 [1] [nM] | FGFR3 Enz kobs [2] [min⁻¹] | IC50 [3] [nM] | IC50 [4] [nM] | IC50 [5] [nM] | IC50 [6] [nM] | Compound
7 | 2 | 0.00106 | 64 | – | – | 5 | C=CC(=O)N1CCC(C(=O)N2CC[C@H](n3cc(-c4cc(OC)c5c(C#N)cnn5c4)cn3)C2)CC1 [Example 62, (S)-6-(1-(1-(1-acryloylpiperidine-4-carbonyl)pyrrolidin-3-yl)-1H-pyrazol-4-yl)-4-methoxypyrazolo[1,5-a]pyridine-3-carbonitrile]
8 | 2 | 0.0004 | 26 | 131 | 18 | 4 | C=CC(=O)N[C@H]1CC[C@H](C(=O)N2CCC(n3cc(-c4cc(OC)c5c(C#N)cnn5c4)cn3)CC2)CC1 [Example 18, N-((1r,4r)-4-(4-(4-(3-cyano-4-methoxypyrazolo[1,5-a]pyridin-6-yl)-1H-pyrazol-1-yl)piperidine-1-carbonyl)cyclohexyl)acryl-amide]
9 | 2 | 0.00074 | 20 | 94 | 23 | 5 | C=CC(=O)N1CCC[C@@H](C(=O)N2CC[C@H](n3cc(-c4cc(OC)c5c(C#N)cnn5c4)cn3)C2)C1 [Example 64, 6-(1-((S)-1-((R)-1-acryloylpiperidine-3-carbonyl)pyrrolidin-3-yl)-1H-pyrazol-4-yl)-4-methoxypyrazolo[1,5-a]pyridine-3-carbonitrile]
10 | 2 | 0.00063 | 3 | 18 | 19 | 6 | C=CC(=O)N[C@H]1C[C@H](C(=O)N2CC[C@H](n3cc(-c4cc(OC)c5c(C#N)cnn5c4)cn3)C2)C1 [Example 74, N-((1S,3r)-3-((S)-3-(4-(3-cyano-4-methoxypyrazolo[1,5-a]pyridin-6-yl)-1H-pyrazol-1-yl)pyrrolidine-1-carbonyl)cyclobutyl)acryl-amide]
11 | 2 | 0.001 | 20 | – | – | 3 | C=CC(=O)N[C@H]1C[C@@H](C(=O)N2CCC(n3cc(-c4cc(OC)c5c(C#N)cnn5c4)cn3)CC2)C1 [Example 44, N-((1s,3s)-3-(4-(4-(3-cyano-4-methoxypyrazolo[1,5-a]pyridin-6-yl)-1H-pyrazol-1-yl)piperidine-1-carbonyl)cyclobutyl)acryl-amide]
